From patent US12037344B2, “NLRP3 modulators” (INNATE TUMOR IMMUNITY, INC., priority 2018, dated 2024)
Where two headings read alike, the source gives them in different places.

Key:
TLR8 = target: T1, TLR8 (Homo sapiens, UniProt Q9NR97); assay: In vitro human TLR8 binding reporter assay (HEK-Blue, NF-kB/AP1-inducible SEAP); format: cell-based; conditions: read-out: TLR8 Agonist EC50
T1 construct: human HEK-Blue cells co-expressing a TLR7 or TLR8 gene
T1 sequence (Q9NR97 27-1041): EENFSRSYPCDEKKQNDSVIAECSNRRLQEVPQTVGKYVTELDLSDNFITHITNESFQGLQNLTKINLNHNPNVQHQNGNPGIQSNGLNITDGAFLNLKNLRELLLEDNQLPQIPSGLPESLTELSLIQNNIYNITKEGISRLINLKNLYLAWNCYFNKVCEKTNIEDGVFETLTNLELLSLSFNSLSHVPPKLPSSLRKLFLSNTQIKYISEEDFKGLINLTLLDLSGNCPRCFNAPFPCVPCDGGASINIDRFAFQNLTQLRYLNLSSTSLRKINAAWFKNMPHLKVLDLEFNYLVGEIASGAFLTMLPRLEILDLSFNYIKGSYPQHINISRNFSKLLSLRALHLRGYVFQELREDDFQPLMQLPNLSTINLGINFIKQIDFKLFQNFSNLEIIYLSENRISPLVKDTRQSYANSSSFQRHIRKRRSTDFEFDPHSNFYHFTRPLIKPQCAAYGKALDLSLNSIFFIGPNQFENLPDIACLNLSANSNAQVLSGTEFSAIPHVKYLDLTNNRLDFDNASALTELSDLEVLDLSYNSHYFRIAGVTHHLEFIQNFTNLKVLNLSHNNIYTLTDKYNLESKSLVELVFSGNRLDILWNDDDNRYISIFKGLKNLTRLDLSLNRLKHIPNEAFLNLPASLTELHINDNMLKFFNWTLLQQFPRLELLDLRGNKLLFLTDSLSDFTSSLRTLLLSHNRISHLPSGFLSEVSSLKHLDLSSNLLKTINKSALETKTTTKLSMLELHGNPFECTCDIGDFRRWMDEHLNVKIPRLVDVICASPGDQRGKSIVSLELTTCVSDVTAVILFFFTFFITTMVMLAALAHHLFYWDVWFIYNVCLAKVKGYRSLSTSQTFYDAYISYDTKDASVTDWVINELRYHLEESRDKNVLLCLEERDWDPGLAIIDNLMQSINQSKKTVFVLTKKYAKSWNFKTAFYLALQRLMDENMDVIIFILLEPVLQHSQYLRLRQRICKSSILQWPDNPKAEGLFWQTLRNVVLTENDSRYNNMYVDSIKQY
How it was run: (§1)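 Cells are seeded and grown for 24 h. Compounds or DMSO are then added and incubated 18 h at 37 °C. Quanti-Blue is added, and SEAP is read after thirty minutes. EC50 values are normalized, with RLU from 50 μM reference standard setting 100% Ymax.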

THP-1 cells = assay: Measurement of IL-1β production, hTRF protocol (second alternative procedure), THP-1 cells; format: cell-based, human; conditions: Homo sapiens
How it was run: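 Compounds, dilution series starting at a final 10 μM, were incubated 2 hours at 37° C with PMA-differentiated THP-1 cells (50 ng/ml overnight; 50,000 cells/well, 2% FBS RPMI). Released IL-1β quantified in supernatant by hTRF kit with 1:40 antibody dilution, 4° C overnight, 665/615 nm ratio.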

TLR7 = target: T2, TLR7 (Homo sapiens, UniProt Q9NYK1); assay: In vitro human TLR7 binding reporter assay (HEK-Blue, NF-kB/AP1-inducible SEAP); format: cell-based; conditions: read-out: TLR7 Agonist EC50
T2 construct: human HEK-Blue cells co-expressing a TLR7 or TLR8 gene
T2 sequence (Q9NYK1 27-1049): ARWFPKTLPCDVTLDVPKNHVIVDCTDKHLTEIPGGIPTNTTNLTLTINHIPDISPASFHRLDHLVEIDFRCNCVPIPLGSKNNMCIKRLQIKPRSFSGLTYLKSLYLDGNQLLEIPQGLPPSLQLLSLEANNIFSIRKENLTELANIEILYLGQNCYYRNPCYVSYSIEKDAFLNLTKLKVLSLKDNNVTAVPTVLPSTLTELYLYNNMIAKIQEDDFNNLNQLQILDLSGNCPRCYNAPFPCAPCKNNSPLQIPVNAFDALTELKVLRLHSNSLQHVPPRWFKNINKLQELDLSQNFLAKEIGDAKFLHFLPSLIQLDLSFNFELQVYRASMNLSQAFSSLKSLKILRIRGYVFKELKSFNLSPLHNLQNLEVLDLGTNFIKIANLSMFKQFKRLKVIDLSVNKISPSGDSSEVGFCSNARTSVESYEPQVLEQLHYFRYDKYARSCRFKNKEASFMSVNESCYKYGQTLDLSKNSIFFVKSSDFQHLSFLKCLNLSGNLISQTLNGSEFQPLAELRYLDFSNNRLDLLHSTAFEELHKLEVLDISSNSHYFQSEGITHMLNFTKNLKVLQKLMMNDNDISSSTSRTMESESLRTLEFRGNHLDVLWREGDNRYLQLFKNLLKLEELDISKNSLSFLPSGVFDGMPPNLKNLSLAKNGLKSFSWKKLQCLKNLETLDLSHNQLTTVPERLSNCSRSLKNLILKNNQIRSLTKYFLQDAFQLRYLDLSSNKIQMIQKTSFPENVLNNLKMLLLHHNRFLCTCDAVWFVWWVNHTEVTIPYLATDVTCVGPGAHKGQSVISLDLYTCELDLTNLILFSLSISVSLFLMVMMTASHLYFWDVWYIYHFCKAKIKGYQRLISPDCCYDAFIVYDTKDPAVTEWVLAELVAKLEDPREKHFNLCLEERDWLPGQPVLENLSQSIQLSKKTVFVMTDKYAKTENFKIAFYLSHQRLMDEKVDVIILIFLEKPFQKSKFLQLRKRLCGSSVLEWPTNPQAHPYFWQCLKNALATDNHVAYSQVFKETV
How it was run: as §1

[1] = THP-1, IL-1β production, human cells, read-out: NLRP3 hILIB EC50
[2] = THP-1, IL-1β production, human, read-out: NLRP3 hILIB EC50

Row | SMILES | EC50 (TLR8; activity range class) [µM] | EC50 (THP-1 cells; THP-1, read-out: NLRP3 hILIB EC50) [µM] | EC50 (TLR7; activity range class) [µM] | EC50 (TLR8; activity range) [µM] | EC50 (THP-1 cells; [1]) [µM] | EC50 (TLR7; activity range) [µM] | EC50 (THP-1 cells; [2]) [µM]
1 | Nc1nc2cc(-c3cc[nH]n3)ccc2c2cn(CCN3CCOCC3)nc12 [Example 20, 2-[2-(morpholin-4-yl)ethyl]-7-(1H-pyrazol-3-yl)-2H-pyrazolo[3,4-c]quinolin-4-amine] | > 100 | 1.08 | 20 to 100 |  |  |  | 
2 | C[C@H](O)Cn1cc2c(N)nc3cc(-c4cc[nH]n4)c(F)cc3c2n1 [Example 405] |  |  |  | > 100 | 0.69 | > 100 | 
3 | Nc1nc2cc(-c3cc[nH]n3)ccc2c2cn(CCNC(=O)CC(F)(F)F)nc12 [Example 181] | > 100 |  | > 100 |  |  |  | 6.53
4 | CC(=O)N(C)CCn1cc2c(N)nc3cc(-c4ccn[nH]4)ccc3c2n1 [Example 259] | > 100 |  | > 100 |  |  |  | 2.29
5 | NC(=O)CCn1cc2c(N)nc3cc(-n4cccn4)ccc3c2n1 [Example 558] |  |  |  | > 100 | 0.63 | > 100 | 
6 | Nc1nc2cc(-c3cc[nH]n3)ccc2c2cn(CCN3Cc4cc(Cl)ccc4C3=O)nc12 [Example 104, 2-{2-[4-amino-7-(1H-pyrazol-3-yl)-2H-pyrazolo[3,4-c]quinolin-2-yl]ethyl}-5-chloro-2,3-dihydro-1H-isoindol-1-one] | 1 to 20 |  | 20 to 100 |  |  |  | 0.13
7 | Nc1nc2cc(-c3cc[nH]n3)ccc2c2nn(CCOC(F)(F)F)cc12 [Example 352] | > 100 |  | > 100 |  |  |  | 0.08
8 | CCNCCn1cc2c(N)nc3cc(-c4ccn[nH]4)ccc3c2n1 [Example 279] | > 100 |  | > 100 |  |  |  | 1.13
9 | CC(N)CCn1cc2c(N)nc3cc(-n4cccn4)ccc3c2n1 (stereo not drawn) [Example 426] |  |  |  | > 100 | 1.89 | > 100 | 
10 | CC(C)(Cn1cc2c(N)nc3cc(-c4ccn[nH]4)ccc3c2n1)C(=O)N1CC(O)C1 [Example 597] |  |  |  | > 100 | 8.7 | > 100 | 
11 | Nc1nc2cc(-c3ccn[nH]3)ccc2c2nn(CCCNS(=O)(=O)c3cccnc3)cc12 [Example 595] |  |  |  | > 100 | 12.9 | > 100 | 
12 | CCn1cc2c(n1)c(N)nc1cc(-c3ccn[nH]3)ccc12 [Example 188] | > 100 |  | > 100 |  |  |  | 0.21
13 | CC(N)Cn1cc2c(N)nc3cc(-c4ccn[nH]4)ccc3c2n1 (stereo not drawn) [Example 257] | > 100 |  | > 100 |  |  |  | 0.86
14 | Nc1nc2cc(-c3cc[nH]n3)ccc2c2nn(CCO)cc12 [Example 209, 2-(4-amino-7-(1H-pyrazol-3-yl)-2H-pyrazolo[4,3-c]quinolin-2-yl)ethan-1-ol] | > 100 |  | > 100 |  |  |  | 0.19
15 | CC(CC(=O)NCCO)n1cc2c(N)nc3cc(-c4cc[nH]n4)ccc3c2n1 (stereo not drawn) [Example 620] |  |  |  | > 100 | 28.6 | > 100 | 
16 | Nc1nc2cc(-c3cc[nH]n3)ccc2c2[nH]c(CN3CCOCC3)c(Cl)c12 [Example 486] |  |  |  | > 100 | 0.13 | > 100 | 
17 | Nc1nc2cc(-c3cc[nH]n3)ccc2c2c1cnn2CCN1CCOCC1 [Example 436] |  |  |  | > 100 | 2.75 | > 100 | 

Row | SMILES | EC50 (TLR8; activity range class) [µM] | EC50 (THP-1 cells; THP-1, read-out: NLRP3 hILIB EC50) [µM] | EC50 (TLR7; activity range class) [µM] | EC50 (TLR8; activity range) [µM] | EC50 (THP-1 cells; [1]) [µM] | EC50 (TLR7; activity range) [µM] | EC50 (THP-1 cells; [2]) [µM]
18 | COCCn1cc2c(N)nc3cc(-c4cc[nH]n4)ccc3c2n1 [Example 207, 2-(2-methoxyethyl)-7-(1H-pyrazol-3-yl)-2H-pyrazolo[4,3-c]quinolin-4-amine] | > 100 |  | > 100 |  |  |  | 0.14
19 | Nc1nc2cc(-c3cc[nH]n3)ccc2c2nn(C3CCC(O)C3)cc12 (single isomer, unassigned) [Example 341] | > 100 |  | > 100 |  |  |  | 0.43
20 | Nc1nc2cc(-n3cccn3)ccc2c2cn(CC3CCCO3)nc12 (stereo not drawn) [Example 17] | > 100 |  | 20 to 100 |  |  |  | 2.2
21 | CCN(CC)CCNC(=O)C(C)n1cc2c(N)nc3cc(-c4ccn[nH]4)ccc3c2n1 (stereo not drawn) [Example 573] |  |  |  | > 100 | 6.59 | > 100 | 
22 | Cc1cc(Cn2cc3c(N)nc4cc(-c5cc[nH]n5)ccc4c3n2)no1 [Example 226] | > 100 |  | > 100 |  |  |  | 0.44
23 | Nc1nc2cc(-c3ccn[nH]3)ccc2c2[nH]c(CN3CCOCC3)cc12 [Example 411, 2-[(morpholin-4-yl)methyl]-7-(1H-pyrazol-5-yl)-1H-pyrrolo[3,2-c]quinolin-4-amine] |  |  |  | > 100 | 0.64 | > 100 | 
24 | NCc1cc2c(N)nc3cc(-c4ccn[nH]4)ccc3c2[nH]1 [Example 438] |  |  |  | > 100 | 0.99 | > 100 | 
25 | Nc1nc2cc(-c3cc[nH]n3)ccc2c2nn(Cc3cn[nH]c3)cc12 [Example 358] | > 100 |  | > 100 |  |  |  | 0.18
26 | COc1ccc(CC(=O)NCCn2cc3c(n2)c(N)nc2cc(-c4cc[nH]n4)ccc23)cc1 [Example 32] | > 100 |  | 1 to 20 |  |  |  | 14.7
27 | Nc1nc2cc(-c3cccs3)ccc2c2cn(CCNC(=O)c3ccc(F)cn3)nc12 [Example 129] | > 100 |  | > 100 |  |  |  | 0.7
28 | CC(CC(=O)NCCCO)n1cc2c(N)nc3cc(-c4cc[nH]n4)ccc3c2n1 (stereo not drawn) [Example 619] |  |  |  | > 100 | 19.7 | > 100 | 
29 | Cc1nc(C(=O)NCCn2cc3c(n2)c(N)nc2cc(-c4cc[nH]n4)ccc23)c(C)o1 [Example 68] | 20 to 100 |  | > 100 |  |  |  | 0.37
30 | Nc1nc2cc(-c3cc[nH]n3)ccc2c2nn(C3CCC(O)C3)cc12 (stereo not drawn) [Example 339] | > 100 |  | > 100 |  |  |  | 0.21
31 | Nc1nc2cc(-c3ccn[nH]3)ccc2c2nn(CCNS(=O)(=O)C3CC3)cc12 [Example 590] |  |  |  | > 100 | 1.2 | > 100 | 
32 | CN(Cc1cc2c(N)nc3cc(-c4cc[nH]n4)ccc3c2[nH]1)[C@H]1CCOC1 [Example 491] |  |  |  | > 100 | 1.17 | > 100 | 
33 | Nc1nc2cc(-c3cc[nH]n3)ccc2c2cn(Cc3ccncc3)nc12 [Example 165] | 20 to 100 |  | > 100 |  |  |  | 0.14
